From patent US20110123530A1, “COMPOSITIONS AND METHODS FOR TREATING AND DIAGNOSING ASTHMA” (priority 2008, published 2011)

Tests used:
serum YKL-40 = assay: Serum YKL-40 immunoassay; assay type: in vivo, human; settings: asthmatics on inhaled corticosteroids (N = 51) vs No ICS (N = 49)
Description: To determine whether elevated levels of soluble periostin and CEA proteins were detectable in peripheral blood, we examined periostin and CEA in sera from 100 asthmatics and 48 healthy controls using immunoassays. In addition, we measured IgE and YKL-40, a serum marker previously described to be elevated in some asthmatics, in these same sera. […] However, in all cases, there was substantial overlap in serum levels of each biomarker between groups. As shown in Example 8, inhaled corticosteroid (ICS) treatment reduces the bronchial epithelial expression of periostin in asthmatics that have elevated periostin at baseline (see also [8]). Of the 100 asthmatics whose serum we examined, 51 were taking inhaled corticosteroids (ICS) and 49 were not. […] Nevertheless, asthmatics on ICS had higher median serum levels of IgE, periostin, and CEA than healthy controls (Table 13). As shown in FIG. 4 and Table 10, 21/23 asthmatics positive for the bronchial epithelial IL-13 signature (“IL-13 high”) had serum IgE levels greater than 100 IU/ml, although a proportion of “IL-13 low” asthmatics also had elevated IgE. […] As airway expression levels of periostin and CEACAM5 were highly correlated in “IL-13 high” asthmatics, we examined the correlation between serum periostin and CEA across all asthmatics (FIG. 13L).

[1] = system: IL-4/13 signature genes in bronchial airway epithelium; assay: Microarray analysis of bronchial epithelial brushings at baseline and after one week of ICS treatment; assay type: in vivo, human
Description: (A) Periostin expression; (B) PRR4 expression; (C) RUNX2 expression.
We studied biological samples stored in the Airway Tissue Bank at the University of California, San Francisco (UCSF) that had been collected during bronchoscopy performed for research purposes in healthy and asthmatic volunteers. Research bronchoscopy had included collection of epithelial brushings, bronchoalveolar lavage (BAL) and bronchial biopsies using specific methods previously described. BAL cell counts and differentials had been performed and databased, and macrophages had been sorted from BAL fluid using flow cytometry. Four to six bronchial biopsies had been obtained from 2nd-through 5th-order carinae (contralateral to the brushing site), formalin-fixed, and then paraffin-embedded in isotropic uniform random orientation to enable quantitative measures of inflammation and remodeling using methods of design-based stereology. An additional 2 bronchial biopsies had been homogenized and processed for RNA using the Qiagen RNeasy minikit (Qiagen Inc., Valencia, Calif.). RNA extracted from epithelial brushings, homogenates of bronchial biopsies, and lavage macrophages had been quality assured and aliquoted for future microrray- and PCR-based gene profiling. All research bronchoscopy studies had been approved by the UCSF Committee on Human Research (CHR), written informed consent had been obtained from all subjects, and all studies had been performed in accordance with the principles expressed in the Declaration of Helsinki The Airway Tissue Bank procedures were also reviewed and approved by UCSF's CHR. Samples of epithelial brushings and macrophages from this tissue bank have been used in previously reported studies. Most recently, microarray analyses of differentially expressed genes in epithelial brushings in asthmatic subjects have been reported by us.
Thirty-two of the subjects with asthma had also been enrolled in a double-blind randomized controlled clinical trial of inhaled fluticasone (500 μg, twice daily, N=19) or matched placebo (N=13) (ClinicalTrials.gov Identifier: NCT00187499). The trial was designed to determine the effects of inhaled steroid (fluticasone) on airway gene expression and to relate gene expression changes to improvements in lung function. The asthma subjects in the clinical trial had undergone baseline bronchoscopy and had been randomized to receive study medication before undergoing repeat bronchoscopy one week later after starting study drug. Asthma subjects continued study medication for a total of 8 weeks. Healthy control subjects and smokers were enrolled in one of three cross-sectional studies, which comprised two visits each, the first for characterization and the second for bronchoscopy 1 week later. Thirty-five subjects had adequate baseline bronchoscopy, and 32 had RNA available from epithelial brushings at both bronchoscopies. Lung function was measured (by spirometry) after 4 weeks and 8 weeks on study medication, and a final spirometry was completed after a one week run-out. […]
Microarray data from mild-moderate non-smoking asthma patients and healthy non-smoking subjects were obtained from a previous study as described. […] Microarray data was analysed in the present study to determine whether genes were differentially regulated within the asthmatic group. Also, the microarray data was analyzed to determine whether other genes were co-regulated with top asthma-related, IL-13 induced genes. […]

[2] = 19 subjects, one week of ICS treatment, vast majority of genes
[3] = individual subjects after one week of ICS treatment

Question: `CCC(=O)O[C@]1(C(=O)SCF)[C@H](C)C[C@H]2[C@@H]3C[C@H](F)C4=CC(=O)C=C[C@]4(C)[C@@]3(F)[C@@H](O)C[C@@]21C` [fluticasone, fluticasone propionate] was tested. Which “YKL-49, level of serum biomarker, median (range)” value (serum YKL-40) did it give?
Answer: Its value is 72 (24-494) ng/ml.

Question: And the “Expression of IL-4/13 signature genes (Table 2) in asthmatic bronchial airway epithelium” value [1, 2]?
Answer: Its value is “significantly downregulated”.

Question: What about the “Expression of IL-13 signature genes (Table 9) in asthmatic bronchial airway epithelium” value [1, 2] of the same compound?
Answer: Its value is “significantly downregulated”.

Question: What about the “PRR4 expression in bronchial epithelial brushings” value [1, 3] of the same compound?
Answer: The value was “not substantially downregulated”.

Question: What about the “RUNX2 expression in bronchial epithelial brushings” value [1, 3] of the same compound?
Answer: The value was “not substantially downregulated”.

Question: What about the “Hierarchical clustering by periostin, CLCA1 and serpinB2 expression in bronchial epithelium” value ([1]; subjects with IL-13 high asthma at baseline, after one week of fluticasone treatment) of the same compound?
Answer: Its value is “clustered with subjects who were IL-13 low at baseline”.
